Patent US20260364072A1, “METHODS FOR PROMOTING EXPANSION OF HUMAN CD34+ CELLS IN VIVO AND FOR PROMOTING NEURAL REGENERATION” (THE REGENTS OF THE UNIVERSITY OF CALIFORNIA, priority 2023, published 2026)

How the values were obtained:
phospho-STAT3 = phospho-STAT3 intracellular flow cytometry; assay type: cell-based, human
Description: Flow cytometry for stem and progenitor cell surface antibody staining was performed as previously described.^14 For phospho-flow, a subset of samples was fixed and permeabilized, then blocked and stained with APC-conjugated ADAR1p150 antibody (cat ab269444, 1:25) and pSTAT3 APC (cat 17-9033-42, 1:10) (Table S2). Fractions were analyzed with the BD LSR FORTESSA™ (Sanford Consortium for Regenerative Medicine Stem Cell Core) and FLOWJO™ software (TreeStar, Ashland, OR).

AZIN1 transcript = AZIN1 transcript editing by RESSqPCR in TF1a cells; assay type: cell-based, human; conditions: shADAR1-transduced cells treated with Rebecsinib compared with vehicle controls
Source text: (§1) For lentivirus-mediated knockdown of human ADAR1 in ADAR1 activation and RNA editing biomarker studies of the nanoluc-GFP reporter and endogenous transcripts, human leukemia cells were stably transduced with the lentiviral shRNA vectors targeting ADAR1 (shADAR1) or scrambled control (shCtrl) to ablate endogenous ADAR1 expression. The shRNA plasmids targeting ADAR1 (shADAR1) as well as the scrambled control (shCtrl) were purchased from VectorBuilder (Chicago, IL) (shCtrl: […] (SEQ ID NO:3) and shADAR1: […]) (SEQ ID NO:4). […] Viral titers were assessed by qRT-PCR and transduction efficiency was tested in 293T cells. […]
(§2) For quantitative analysis of splice isoform expression, RNA editing rates, and whole gene expression by qRT-PCR, cells or tissue fragments were harvested in RNA lysis buffer and total RNA was extracted using RNeasy mini or micro extraction kits (QIAGEN, Germantown, MD) following the manufacturer's protocol including a DNase incubation step to digest any trace genomic DNA present. Levels of ADAR1 variants and LSC-specific transcripts were quantified by qRT-PCR as previously described.^14 RNA-editing site-specific qRT-PCR (RESSqPCR) was performed for variants in AZIN1 transcripts.^53 Additional species-specific primers were also designed to quantify intron retention rates in cells treated with Rebecsinib as a biomarker of response to RNA splicing modulation. […]

RNA editing = experiment: Whole transcriptome RNA editing analysis of CD34+ cells from sAML50261 engrafted mice; assay type: in vivo, human cells in mice; conditions: mice treated with 5 or 10 mg/kg
Description: FIG. 30E illustrates a whole transcriptome-based RNA editing analyses of previously-described RNA-seq data^14 generated from CD34^+ cells isolated from the spleens of sAML50261 engrafted mice treated with Rebecsinib or vehicle;
For RNA editing analyses of whole transcriptome sequencing data, previous datasets were utilized from CD34^+ cells isolated from the spleens of sAML50261-engrafted mice treated once weekly with Rebecsinib in a dose-response assay (5 or 10 mg/kg),^14 along with CD34^+ cells harvested from mice that were serially transplanted with CD34+ cells from sAML50261-engrafted mice that had been treated twice weekly with Rebecsinib at 10 mg/kg (no further treatment was delivered to serial transplant recipients). Due to limiting number of cells remaining after treatment, cells were pooled from n=4 to 5 mice per condition for sequencing. RNA editing analysis was performed as previously described.^5

[1] = test system: MCL1 and SF3B3 transcripts; experiment: Pharmacodynamic splice isoform qRT-PCR in PBMCs from treated NHPs; assay type: in vivo, cynomolgus monkeys
Description: Pharmacodynamic studies were conducted on peripheral blood mononuclear cells (PBMCs) isolated from NHPs treated with escalating doses of Rebecsinib (3 mg/kg, 10 mg/kg, 15 mg/kg or 20 mg/kg) or a vehicle control and collected at 30 minute and 4 hours post-dose.
(FIG. 29G, FIG. 29H) For in vivo TK and complementary pharmacodynamic studies, NHPs were given a single injection of Rebecsinib at 3-20 mg/kg, or vehicle control, and blood samples were drawn at regular intervals to determine plasma concentrations (FIG. 29G) of the compound along with splice isoform biomarker assays to quantify MCL1 exon skipping in PBMCs isolated from treated animals (FIG. 29H, n=2 animals per group).
For quantitative analysis of splice isoform expression, RNA editing rates, and whole gene expression by qRT-PCR, cells or tissue fragments were harvested in RNA lysis buffer and total RNA was extracted using RNeasy mini or micro extraction kits (QIAGEN, Germantown, MD) following the manufacturer's protocol including a DNase incubation step to digest any trace genomic DNA present. Levels of ADAR1 variants and LSC-specific transcripts were quantified by qRT-PCR as previously described.^14 RNA-editing site-specific qRT-PCR (RESSqPCR) was performed for variants in AZIN1 transcripts.^53 Additional species-specific primers were also designed to quantify intron retention rates in cells treated with Rebecsinib as a biomarker of response to RNA splicing modulation. Specifically, for the two-step SYBR-green based assays, as previously described,^7,14,53 100-1000 ng of RNA were subjected to cDNA synthesis using the SUPERSCRIPT III™ (ThermoFisher Scientific) kit followed by qRT-PCR using SYBR GreenER (ThermoFisher Scientific) master mix according to the manufacturer's recommended procedures. qRT-PCR was performed using SYBR GREENER SUPER MIX™ (Life Technologies) on BioRad iQ5™, C1000 TOUCH™, or BioRad CFX384™ instruments. Human splice isoform-specific, RNA editing site-specific qPCR (RESSqPCR)^53. Primer sets that have not been previously published were designed and tested for efficiency followed by analyses in samples exposed to Rebecsinib, with species-specific HPRT primers used as controls. Samples with Ct<35 for the species-specific reference gene, HPRT, were included in analyses. Relative mRNA expression values were calculated using the 2^−ΔCT method, with normalization to untreated or vehicle-treated controls.^54

MDA-MB-231 cells = experiment: IVIS total flux in MDA-MB-231 transplanted mice; assay type: in vivo, human cells in Rag2 neonatal mice; conditions: 0 day after completing the dosing plan; compared to vehicle control
Source text: FIG. 5 graphically illustrates IVIS (In Vivo Imaging System) results of ADAR1-MDA-MB-231 transplanted Rag2 mouse models, and IVIS images were taken at 6 weeks after transplant (FIG. 5A), after two weeks of therapy (FIG. 5B), and one week after therapy was completed (FIG. 5C), as discussed in further detail in Example 5, below.
Ten thousand (10k) MDA-MB-231 cells were intrahepatically transplanted into Rag2 neonatal mice, then treated with fedratinib, rebecsinib, or a combination of fedratinib and rebecsinib. IVIS images were taken at 6 weeks after transplant (FIG. 5A), after two weeks of therapy (FIG. 5B), and one week after therapy was completed (FIG. 5C). The IVIS signals from the mice were graphed by groups.
The IVIS images of these mice were taken at 0 day after completing the dosing plan and are graphed by their total flux.

ADAR1 = ADAR1 expression by qRT-PCR in TF1a cells; assay type: cell-based, human; conditions: TF1a AML cell line; 0.1 μM, 4 hours
Source text: as §1, §2

What does the source list for `CC[C@H](OC)[C@@H](C)[C@H]1O[C@@H]1[C@@H](O)[C@H](C)/C=C/C=C(\C)[C@H]1OC(=O)C[C@H](O)CC[C@@](C)(O)[C@@H](OC(C)=O)/C=C/[C@@H]1C` [Rebecsinib]?
phospho-STAT3 expression (phospho-STAT3): reduced phospho-STAT3 expression; AZIN1 transcript editing activity (RESSqPCR) (AZIN1 transcript): low levels of AZIN1 transcript editing activity; RNA editing activity (RNA editing): global downregulation of RNA editing activity that occurred in a dose-responsive manner; MCL1 exon skipping in PBMCs ([1]; NHP, 3, 10, 15 or 20 mg/kg, 30 minute and 4 hours post-dose): on-target splicing modulation typified by MCL1 exon skipping; splicing modulation ([1]; NHP, PD analyses): predictable, dose-dependent splicing modulation; SF3B3 intron retention in PBMCs, 4 hours ([1]; NHP, single doses of 3, 10, 15 or 20 mg/kg): detectable at 4 hours; SF3B3 intron retention in PBMCs, 30 min ([1]; NHP, single doses of 3, 10, 15 or 20 mg/kg, compared with vehicle): increased at 30 min; total flux (IVIS) (MDA-MB-231 cells): significantly decreased; ADAR1 expression as measured by qRT-PCR (ADAR1): reduced ADAR1 expression
